Test results published in BindingDB's records for doi:10.1021/jm00129a030 (Takeda Chemical Industries, 1989).

Target: Thromboxane A2 receptor (Cavia porcellus)
Assay: In vitro concentration that reduced specific binding of [3H][…] to guinea pig platelet receptor, Thromboxane A2 receptor by 50%

IC50: 31 nM
Structure (SMILES): CCCCC[C@H](O)/C=C/[C@@H]1[C@@H](C/C=C\CCCC(=O)O)[C@H]2CO[C@@H]1C2 [(Z)-7-((1R,4S,5S,6R)-6-((S,E)-3-hydroxyoct-1-enyl)-2-oxabicyclo[2.2.1]heptan-5-yl)hept-5-enoic acid]
